Where two headings read alike, the source gives them in different places.
Columns and labels:
[1] = system: T. mentagrophytes, T. rubrum and C. albicans; experiment: Drug resistance development in vitro by serial passage of fungal cultures; format: cell-based; conditions: serial passage in the presence of sub-growth inhibitory concentrations
From the text: Efinaconazole drug resistance development was studied in vitro against T. mentagrophytes, T. rubrum and C. albicans. […] The clinical significance of these in vitro results is unknown.

bacterial = experiment: Bacterial reverse mutation assay; format: cell-based
[2] = mouse, in vivo
CHL cell = format: cell-based
[3] = set-up: species or system rats; conditions: rat, in vivo, sc
[4] = Pharmacokinetic study in healthy volunteers, topical application to all 10 toenails; format: in vivo, human; conditions: for Cmax: mean +/- SD; for AUC(0-t): read-out: AUC24h
Method: In […] patients, efinaconazole 10% solution (IDP-108) was applied topically to all 10 toenails (0.42 mL total daily dose volume) administered as single and then 7 daily doses to 10 healthy volunteers, and once daily for 28 days to 18 severe onychomycosis patients. The efinaconazole 10% solution (0.42 mL/subject) was applied topically in the morning, unoccluded (i.e., without occluding, blocking or covering the nail with, for example, adhesive tape, bandage, dressing, sealant, etc.), by a trained nurse or study technician to all 10 toenails as a single dose (day 1), and seven consecutive daily doses (day 4 through day 10). A volume of 90 μL was applied on each great toenail and 30 μL on each of the remaining 8 toenails. There were no study drug applications on days 2 and 3.
Blood samples were collected at pre-dose, and 1, 2, 4, 6, 8, 10, 12, 16, 24, 28, 32, 36, 48, and 72 hours after dosing on days 1 and 10; and at pre-dose on days 6 and 8. Blood was processed to plasma and stored frozen until analysis.
(§1) Plasma concentrations of efinaconazole and its major metabolite H3 were determined by LC-MS-MS at multiple timepoints. Plasma concentrations of efinaconazole and H3 were determined using a validated LC-MS-MS method. […] The concentration of efinaconazole in plasma was determined at multiple time points over the course of 24-hour periods on days 1, 14, and 28. Plasma concentrations below the lower limit were set to zero for PK analyses. Pharmacokinetic parameters were calculated from individual plasma concentrations, whenever possible, using noncompartmental analysis in WinNonlin (Pharsight, Sunnyvale, Calif., USA), and included Cmax (observed peak drug concentration), Tmax (time at which Cmax occurs), Cmin (observed minimum drug concentration), t1/2 (apparent half-life), and AUC (area under the concentration-time curve).

[5] = Pharmacokinetic study in severe onychomycosis patients, once daily for 28 days; format: in vivo, human; conditions: for AUC(0-t): read-out: AUC24h; for Cmax: mean +/- SD
Method: Systemic absorption of efinaconazole in 18 […] patients with severe onychomycosis was determined after application of IDP-108 (10% efinaconazole) once daily for 28 days to patients' 10 toenails and adjacent skin. Specifically, two single-center, open-label studies in healthy volunteers and severe onychomycosis patients.
A separate single-center, open-label study to evaluate safety and PK of efinaconazole and its H3 metabolite in 20 patients with severe toenail onychomycosis also was conducted. The study enrolled men and women 18-70 years of age who had clinical diagnoses of stable or exacerbating severe DLSO affecting ≥80% of the area of both great toenails. The great toenails had evidence of toenail growth, and at least four toenails other than the great toenails were also affected by onychomycosis. A positive microscopic examination with potassium hydroxide (KOH) for the hyphae associated with dermatophytes was obtained for at least one great toenail at the screening visit.
Efinaconazole 10% solution (0.42 mL/subject) was applied topically, unoccluded, once daily in the morning for 28 days to all 10 toenails by a trained nurse or study technician, including to the toenail folds, toenail bed, hyponychium, and approximately 0.5 cm of skin around the toenail in all directions to ensure they were completely covered.
Blood samples were collected at predose and at 1, 2, 4, 6, 8, 10, 12, 16, and 24 hours postdose on days 1, 14, and 28. Blood was processed to plasma and stored frozen until analysis.
as §1

CYP2C9 = CYP2C9 (Homo sapiens, UniProt P11712); experiment: biochemical; format: in vitro ADME
From the text: The 2006 Food and Drug Administration Drug Interaction Studies—Study Design, Data Analysis, and Implications for Dosing and Labeling draft guidance recommends clinical evaluation for drugs that are CYP inhibitors if the mean steady state Cmax/Ki is greater than 0.1.

Sequence of CYP2C9 (P11712 whole entry): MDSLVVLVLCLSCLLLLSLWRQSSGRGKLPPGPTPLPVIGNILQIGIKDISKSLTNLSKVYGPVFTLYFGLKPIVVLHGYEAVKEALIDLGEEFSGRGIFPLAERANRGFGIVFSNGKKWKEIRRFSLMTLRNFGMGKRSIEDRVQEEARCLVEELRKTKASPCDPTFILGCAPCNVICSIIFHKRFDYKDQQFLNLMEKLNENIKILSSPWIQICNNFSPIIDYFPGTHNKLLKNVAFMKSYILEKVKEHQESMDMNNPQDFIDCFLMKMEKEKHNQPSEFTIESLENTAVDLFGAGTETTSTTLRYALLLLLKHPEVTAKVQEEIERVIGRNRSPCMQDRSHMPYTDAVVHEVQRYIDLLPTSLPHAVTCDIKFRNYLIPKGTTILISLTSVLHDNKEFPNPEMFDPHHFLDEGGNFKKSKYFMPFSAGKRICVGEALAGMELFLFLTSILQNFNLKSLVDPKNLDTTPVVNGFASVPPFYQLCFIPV

C=C1CCN([C@H](C)[C@](O)(Cn2cncn2)c2ccc(F)cc2F)CC1 [efinaconazole, (2R,3R)-2-(2,4-difluorophenyl)-3-(4-methylenepiperidin-1-yl)-1-(1H-1,2,4-triazol-1-yl) butan-2-ol]
increase of the MIC [1]: up to 4 fold | mutagenicity (bacterial): not mutagenic | clastogenicity [2]: not clastogenic | clastogenicity (CHL cell): not clastogenic | effect on estrous cycle in females ([3]; 5 mg/kg/day): did not have effects | effect on estrous cycle in females ([3]; 25 mg/kg/day): delayed the estrous cycle | steady-state reached on Day ([4]; fifth topical application, both toenails and back skin): 8 days | Systemic exposure (AUC24h) on day 10 relative to day 1 ([4]; healthy volunteers): approximately 3.6 fold | Cmax ([4]; healthy volunteers, Day 1 (single dose), plasma): 0.38 ± 0.39 ng/mL | Cmax ([4]; healthy volunteers, Day 10 (7th daily dose), plasma): 0.54 ± 0.22 ng/mL | Cmin ([4]; healthy volunteers, Day 10, mean +/- SD): 0.47 ± 0.18 ng/mL | average plasma concentration ([4]; healthy volunteers, stated after the day 10 range): 0.37 ng/mL | Cmax ([4]; human, plasma, topical, 0.42 mL/subject, healthy volunteers, Day 1 (single dose), plasma, read-out: Cmax): 0.382 ng/mL | AUC(0-t) ([4]; human, plasma, topical, 0.42 mL/subject, healthy volunteers, Day 1, mean +/- SD): 2.64 ± 2.85 ng·h/mL | Tmax ([4]; human, plasma, topical, 0.42 mL/subject, healthy volunteers, Day 1, value [range]): 24 h | Cmax ([4]; human, plasma, topical, 0.42 mL/subject, healthy volunteers, Day 10 (7th daily dose), plasma, read-out: Cmax): 0.542 ng/mL | AUC(0-t) ([4]; human, plasma, topical, 0.42 mL/subject, healthy volunteers, Day 10, mean +/- SD): 9.48 ± 3.86 ng·h/mL | Tmax ([4]; human, plasma, topical, 0.42 mL/subject, healthy volunteers, Day 10, value [range]): 10 h | concentration at 1 day ([4]; human, plasma, topical, 0.42 mL/subject, healthy volunteers, day 1, read-out: plasma concentration range): 0 to 1.11 ng/mL | concentration at 10 day ([4]; human, plasma, topical, 0.42 mL/subject, healthy volunteers, day 10, read-out: plasma concentration range): 0.25 to 0.85 ng/mL | tolerability, drug-related adverse events ([5]; both PK studies (healthy volunteers and onychomycosis patients)): well tolerated | Tmax ([5]; both sexes, human, plasma, topical, 0.42 mL/subject, onychomycosis patients, Day 1): 23.9 h | AUC(0-t) ([5]; both sexes, human, plasma, topical, 0.42 mL/subject, onychomycosis patients, Day 1, mean +/- SD): 1.79 ng·h/mL | Cmax ([5]; both sexes, human, plasma, topical, 0.42 mL/subject, onychomycosis patients, Day 1, plasma): 0.23 ± 0.18 ng/mL | Tmax ([5]; both sexes, human, plasma, topical, 0.42 mL/subject, onychomycosis patients, Day 14): 4.55 h | AUC(0-t) ([5]; both sexes, human, plasma, topical, 0.42 mL/subject, onychomycosis patients, Day 14, mean +/- SD): 10.9 ± 5.9 ng·h/mL | Cmax ([5]; both sexes, human, plasma, topical, 0.42 mL/subject, onychomycosis patients, Day 14, plasma): 0.62 ± 0.23 ng/mL | Tmax ([5]; both sexes, human, plasma, topical, 0.42 mL/subject, onychomycosis patients, Day 28): 16 h | AUC(0-t) ([5]; both sexes, human, plasma, topical, 0.42 mL/subject, onychomycosis patients, Day 28, mean +/- SD): 12.2 ng·h/mL | Cmax ([5]; both sexes, human, plasma, topical, 0.42 mL/subject, onychomycosis patients, Day 28, plasma): 0.67 ng/mL | concentration at 2 weeks after the last dose ([5]; both sexes, human, plasma, topical, 0.42 mL/subject, onychomycosis patients, detected in several subjects, read-out: mean plasma concentrations two weeks after the last dose): 0.07 ng/mL | Cmin ([5]; onychomycosis patients, Day 14, mean +/- SD): 0.33 ± 0.17 ng/mL | Cmin ([5]; onychomycosis patients, Day 28, mean +/- SD): 0.36 ± 0.20 ng/mL | Ki (CYP2C9): 261 nM | steady state Cmax/Ki (CYP2C9): 0.007
